Experimental data: patent US20080299589A1, “Methods and Materials for Examining the P13k/Akt Pathway in Gliomas and Prostate Cancers” (The Regents of the University of California, priority 2003, published 2008)
Entries after “also recorded” stand apart in the source; their conditions may differ.

Experiments:
[1] = tested on: LNCaP cells; assay: Immunostaining of formalin fixed, paraffin embedded LNCaP cell pellets with phospho-specific antibodies after inhibitor treatment; format: cell-based; conditions: 18 hours, vs vehicle
Description: (§1) Cells (LNCaP, DU 145, HT 129) were grown in culture (DMEM supplemented with 10% FBS, L-Glutamine, Penicillin and Streptomycin) and exposed to vehicle, the PI3K inhibitor LY294002 (30 μM), the mTOR inhibitor, CCI-779 (20 nM) for 18 hours or the MEK inhibitor, UO126 (20 μM) combined with 100 ng/ml of EGF for 20 minutes. Cell pellets were prepared, formalin fixed and embedded in paraffin, then cut for immunohistochemical staining with phospho-AKT, -S6, -FKHR and -ERK antibodies. We performed antigen retrieval with a 10 mM sodium citrate buffer (pH 6.0) for 30 minutes in a pressure cooker. Peroxidase activity was quenched with 3% hydrogen peroxide in water. Sections were stained overnight at 4° C. with monoclonal antibodies to PTEN at 1:300 (clone 6H2.1; Cascade Bioscience, Winchester, Mass. This antibody recognizes a 99 amino acid epitope at the C-terminus of PTEN) and polyclonal phosphorylation-specific antibodies to p-AKT (Set 473), p-FKHR which recognizes phosphorylated forms of the forkhead family of transcription factors FKHR (FOXO 1), FKHRL1 (FOXO 3a) and AFX (FOXO 4), p-S6 Ribosomal protein (Set 235/236), p-ERK (Thr-202/Tyr-204) at 1:100 (Cell Signaling Technology, Beverly, Mass.). This was followed by application of biotinylated secondary antibodies (Vector) at 1:1000 dilution for 30 minutes and Avidin-biotin complex (Elite ABC; Vector). Negative control slides received normal mouse serum (DAKO) as the primary antibody. Diaminobenzidine tetrahydrochloride (DAB) was used as the enzyme substrate to visualize specific antibody localization for PTEN and p-AKT; Vector NovaRed (Vector) for p-FKHR, p-S6 and p-ERK. Slides were counterstained with Harris hematoxylin. For immunofluorescence assays, post fixation in paraformaldehyde, the cells were probed with Total AKT (1:50) and p-AKT (1:250); the secondary antibodies Alexa Flour anti-rabbit and anti-mouse (1:1000) [Molecular Probes, Eugene, Oreg.]. Following incubation, images were captured on a Nikon fluorescence microscope and then overlaid using Adobe Photoshop software. […]

[2] = tested on: PTEN deficient prostate cancer xenografts; conditions: PTEN deficient vs wild type prostate cancer xenografts; cited from earlier work
[3] = tested on: PTEN deficient prostate cancer cell lines; conditions: PTEN deficient vs wild type prostate cancer cell lines; cited from earlier work
[4] = tested on: HT129 cells; assay: p-ERK staining in EGF-induced HT129 cells; format: cell-based
Description: as §1, with “This was followed by application of biotinylated secondary antibodies (Vector) at 1:1000 dilution for 30 minutes and Avidin-biotin complex (Elite ABC; Vector). Negative control slides received normal mouse serum (DAKO) as the primary antibody. Diaminobenzidine tetrahydrochloride (DAB) was used as the enzyme substrate to visualize specific antibody localization for PTEN and p-AKT; Vector NovaRed (Vector) for p-FKHR, p-S6 and p-ERK. Slides were counterstained with Harris hematoxylin. For immunofluorescence assays, post fixation in paraformaldehyde, the cells were probed with Total AKT (1:50) and p-AKT (1:250); the secondary antibodies Alexa Flour anti-rabbit and anti-mouse (1:1000) [Molecular Probes, Eugene, Oreg.].” left out

[5] = tested on: SKMG-3 cells; conditions: unstimulated SKMG-3 cells, minimal growth conditions; cited from earlier work

CO[C@H]1C[C@@H]2CC[C@@H](C)[C@@](O)(O2)C(=O)C(=O)N2CCCC[C@H]2C(=O)O[C@H]([C@H](C)C[C@@H]2CC[C@@H](OC(=O)C(C)(CO)CO)[C@H](OC)C2)CC(=O)[C@H](C)/C=C(\C)[C@@H](O)[C@@H](OC)C(=O)[C@H](C)C[C@H](C)/C=C/C=C/C=C/1C [CCI-779]
staining intensity of p-AKT ([1]; CCI-779 20 nM): no effect | staining intensity of p-S6 (S6 phosphorylation) ([1]; CCI-779 20 nM): downregulation of S6 phosphorylation; also recorded: decreased staining intensity | sensitivity to pharmacologic inhibition of mTOR compared to wild type counterparts [2]: more sensitive | sensitivity to pharmacologic inhibition of mTOR compared to wild type counterparts [3]: more sensitive

O=c1cc(N2CCOCC2)oc2c(-c3ccccc3)cccc12 [LY294002]
staining intensity of p-ERK ([1]; LY294002 30 μM): no effect | p-ERK staining ([4]; HT129 cells induced with EGF 100 ng/ml, LY294002): lack of inhibition

CNc1cc2c(Nc3cccc(Br)c3)ncnc2cn1 [PD158780]
constitutive phosphorylation of Erk [5]: reduces the constitutive phosphorylation | constitutive phosphorylation of the receptor (EGFR) [5]: reduces the constitutive phosphorylation

N#CC(=C(/N)Sc1ccccc1N)/C(C#N)=C(/N)Sc1ccccc1N [UO-126]
p-ERK staining ([4]; HT129 cells induced with EGF 100 ng/ml for 20 minutes, UO-126 20 μM for 20 minutes): decreased staining; also recorded: reduced
